Data on 35 molecules can be found in ChEMBL document CHEMBL1821665, “Structure-based design and optimization of potent renin inhibitors on 5- or 7-azaindole-scaffolds” (Bioorg Med Chem Lett, 2011).

A word on the IC50: it is the concentration that inhibits the measured activity by half. In general, Papp A→B refers to the apparent permeability from the apical to the basolateral side of a cell layer.

The target of series [1] is T1, Renin (Homo sapiens, UniProt P00797).
T1 sequence (P00797 whole entry): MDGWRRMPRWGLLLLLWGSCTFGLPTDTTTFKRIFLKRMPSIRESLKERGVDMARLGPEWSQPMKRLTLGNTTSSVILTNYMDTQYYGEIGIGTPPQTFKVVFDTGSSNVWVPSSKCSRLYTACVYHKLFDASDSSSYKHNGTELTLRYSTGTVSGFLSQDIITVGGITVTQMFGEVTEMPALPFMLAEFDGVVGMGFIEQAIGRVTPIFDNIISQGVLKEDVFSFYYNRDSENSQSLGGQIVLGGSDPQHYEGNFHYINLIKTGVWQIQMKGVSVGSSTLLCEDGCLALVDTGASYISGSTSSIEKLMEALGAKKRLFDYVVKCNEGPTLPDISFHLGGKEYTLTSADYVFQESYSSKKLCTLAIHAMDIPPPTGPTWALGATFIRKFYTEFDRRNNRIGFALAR
The series can be described thus: Inhibition of recombinant human renin using Dabcyl-gamma-Abu-Ile-His-Pro-Phe-His-Leu-Val-Ile-His-Thr-EDANS as substrate after 2 hrs by spectrofluorometry.

Series [2] has as its target T1, Renin. The series can be described thus: Inhibition of recombinant human renin using Dabcyl-gamma-Abu-Ile-His-Pro-Phe-His-Leu-Val-Ile-His-Thr-EDANS as substrate preincubated for 30 mins followed by 30 mins incubation in human plasma by spectrofluorometry.
Series [3] in a line: Apparent permeability from apical to basolateral side of human Caco2/TC7 cells at 20 uM after 2 hrs in presence of 0.5 to 5% BSA at pH 6.5 to 7.4. It is filed as ADME, cell-based. The note with it: Caco-2, pH 6.5.
The target in series [4] is T1, Renin. Put plainly: Inhibition of recombinant human renin using Dabcyl-gamma-Abu-Ile-His-Pro-Phe-His-Leu-Val-Ile-His-Thr-EDANS as substrate preincubated for 30 mins followed by 30 mins incubation in mouse C57BL/6 plasma by spectrofluorometry.

The structures appear in SMILES notation.

On to `O=C(c1c(Oc2ccccc2)n(-c2ccccc2)c2ncccc12)N1CCNCC1`, for which, on Renin [1], the IC50 was 1.83 µM.

Take `Cc1ccccc1Oc1c(C(=O)N2CCNCC2)c2cccnc2n1-c1ccccc1`: the IC50 at Renin [1] turned out to be 0.098 µM.

For `O=C(c1c(Oc2ccccc2F)n(-c2ccccc2)c2ncccc12)N1CCNCC1`, the IC50 at Renin [1] came to 5.06 µM.

On to `Cc1cccc(F)c1Oc1c(C(=O)N2CCNCC2)c2cccnc2n1-c1ccccc1`, for which the IC50 on Renin [1] is 0.231 µM.

As for `Cc1ccc(F)cc1Oc1c(C(=O)N2CCNCC2)c2cccnc2n1-c1ccccc1`, the IC50 on Renin [1] stood at 0.396 µM.

Turning to `Cc1c(F)cc(F)cc1Oc1c(C(=O)N2CCNCC2)c2cccnc2n1-c1ccccc1`, the IC50 on Renin [1] came out at 0.504 µM.

Consider `O=C(c1c(Cc2ccccc2)n(-c2ccccc2)c2ncccc12)N1CCNCC1`, for which the IC50 at Renin [1] turned out to be 6.41 µM.

As for `Cc1ccc(F)cc1Oc1c(C(=O)N2CCNCC2)c2cc(O)cnc2n1-c1ccccc1`, the IC50 at Renin [2] worked out at 0.189 µM; at Renin [1], 0.006 µM; on Renin [4] it was 0.057 µM. In addition, the Papp A→B at 2 h, 20 µM in series [3] was determined as 0.45 ×10⁻⁶ cm/s.

For the molecule `Cc1c(F)cccc1Cc1c(C(=O)N2CCNCC2)c2cc(O)cnc2n1-c1ccccc1`, the IC50 at Renin [2] was determined as 0.095 µM; at Renin [1], 0.006 µM; at Renin [4] it was 0.159 µM.

Turning to `COc1cnc2c(c1)c(C(=O)N1CCNCC1)c(Cc1cccc(F)c1C)n2-c1ccccc1`, the IC50 at Renin [1] came out at 4.67 µM.

Consider `COc1ccc2c(C(=O)N3CCNCC3)c(Oc3cc(F)ccc3C)n(-c3ccccc3)c2n1`, for which the IC50 at Renin [1] amounted to 0.015 µM.

`CCc1ccnc2c1c(C(=O)N1CCNCC1)c(Oc1cc(F)ccc1C)n2-c1ccccc1`: the IC50 at Renin [1] amounted to 1.23 µM.

Regarding `CCc1ccnc2c1c(C(=O)N1CCNCC1)c(Cc1cccc(F)c1C)n2-c1ccccc1`, the IC50 on Renin [1] turned out to be 0.089 µM.

In the case of `CCCc1ccnc2c1c(C(=O)N1CCNCC1)c(Oc1c(C)cccc1C)n2-c1ccccc1`, on Renin [1], the IC50 turned out to be 0.186 µM.

Turning to `CCCc1ccnc2c1c(C(=O)N1CCNCC1)c(Cc1cccc(F)c1C)n2-c1ccccc1`, at Renin [1], the IC50 came out at 0.218 µM.

Take `Cc1ccccc1Oc1c(C(=O)N2CCNCC2)c2cnccc2n1-c1ccccc1`: on Renin [1], the IC50 worked out at 0.847 µM.

For `Cc1ccc(F)cc1Oc1c(C(=O)N2CCNCC2)c2cnccc2n1-c1ccccc1`, the IC50 on Renin [1] was 0.123 µM.

For `Cc1c(F)cccc1Oc1c(C(=O)N2CCNCC2)c2cnccc2n1-c1ccccc1`, on Renin [1], the IC50 came out at 0.181 µM.

As for `Cc1c(F)cc(F)cc1Oc1c(C(=O)N2CCNCC2)c2cnccc2n1-c1ccccc1`, on Renin [1], the IC50 amounted to 0.65 µM.

Regarding `O=C(c1c(Cc2ccccc2)n(-c2ccccc2)c2ccncc12)N1CCNCC1`, the IC50 on Renin [1] came out at 3.4 µM.

`Cc1ccccc1Cc1c(C(=O)N2CCNCC2)c2cnccc2n1-c1ccccc1`: the IC50 at Renin [1] stood at 0.52 µM.

Consider `Cc1c(F)cccc1Cc1c(C(=O)N2CCNCC2)c2cnccc2n1-c1ccccc1`, for which the IC50 on Renin [2] worked out at 0.2 µM; on Renin [1], 0.008 µM; at Renin [4], 0.41 µM. The Papp A→B at 2 h, 20 µM in series [3] worked out at 0.64 ×10⁻⁶ cm/s.

Take `COc1cc2c(cn1)c(C(=O)N1CCNCC1)c(Cc1cccc(F)c1C)n2C1CCCCC1`: at Renin [1], the IC50 is 0.15 µM.

`COc1cc2c(cn1)c(C(=O)N1CCNCC1)c(Cc1cccc(F)c1C)n2-c1ccccc1`: the IC50 at Renin [2] came to 0.328 µM; at Renin [1], 0.006 µM. The Papp A→B at 2 h, 20 µM in series [3] amounted to 2.2 ×10⁻⁶ cm/s.

Take `COc1cc2c(cn1)c(C(=O)N1CCNCC1)c(Oc1cc(F)ccc1C)n2-c1ccccc1`: the IC50 at Renin [1] worked out at 0.073 µM.

As for `Cc1ccc(F)cc1Oc1c(C(=O)N2CCNCC2)c2cnc(O)cc2n1-c1ccccc1`, the IC50 on Renin [1] was 0.024 µM.

`Cc1c(F)cccc1Cc1c(C(=O)N2CCNCC2)c2cnc(O)cc2n1C1CCCCC1`: the IC50 on Renin [1] worked out at 0.116 µM.

For `Cc1c(F)cccc1Cc1c(C(=O)N2CCNCC2)c2cnc(O)cc2n1-c1ccccc1`, the IC50 on Renin [1] is 0.088 µM.

For `COc1cc2c(cn1)c(C(=O)N1CCNCC1)c(Oc1c(C)cccc1C)n2C1CCCCC1`, the IC50 on Renin [1] worked out at 0.099 µM.

For the molecule `Cc1ccc(F)c(C)c1Oc1c(C(=O)N2CCNCC2)c2cnc(O)cc2n1C1CCCCC1`, on Renin [1], the IC50 turned out to be 0.098 µM.

Consider `Cc1ccc(F)cc1Oc1c(C(=O)N2CCN[C@@H](C)C2)c2cnc(O)cc2n1C1CCCCC1`, for which the IC50 on Renin [1] was 0.011 µM.

Take `Cc1ccc(F)c(C)c1Oc1c(C(=O)N2CCN[C@@H](C)C2)c2c[nH]c(=O)cc2n1C1CCCCC1`: at Renin [1], the IC50 was determined as 0.037 µM.

Take `Cc1c(F)cccc1Cc1c(C(=O)N2CCN[C@@H](C)C2)c2c[nH]c(=O)cc2n1C1CCCCC1`: the IC50 on Renin [1] turned out to be 0.154 µM.

For `COC[C@H]1CN(C(=O)c2c(Cc3cccc(F)c3C)n(C3CCCCC3)c3cc(OC)ncc23)CCN1`, the IC50 on Renin [1] stood at 4.09 µM.

With `COc1cc2c(cn1)c(C(=O)N1CCN[C@@H](CO)C1)c(Cc1cccc(F)c1C)n2C1CCCCC1`, the IC50 on Renin [1] came out at 3.26 µM.
